These results are taken from ChEMBL document CHEMBL1143658, “Discovery of 2-[(2,4-dichlorophenyl)amino]-N-[(tetrahydro- 2H-pyran-4-yl)methyl]-4-(trifluoromethyl)- 5-pyrimidinecarboxamide, a selective CB2 receptor agonist for the treatment of inflammatory pain” (J Med Chem, 2007).

pEC50, pIC50: −log10 of the molar value. Bounds are passed on as bounds.

Series [1] concerns the target T1, Cannabinoid receptor 2 (Homo sapiens, UniProt P34972). Description: Efficacy at human recombinant CB2 receptor expressed in Saccharomyces cerevisiae cells relative to HU210. Type of series: cell-based.
The target in series [2] is T1, Cannabinoid receptor 2. Description: Agonist activity at human recombinant CB2 receptor expressed in Saccharomyces cerevisiae cells. Format: functional, cell-based.
Series [3] deals with Cytochrome P450 2D6 (Homo sapiens, UniProt P10635). Kind of series: Inhibition of human CYP2D6. Type of series: ADME.
Series [4] addresses Cytochrome P450 2C19 (Homo sapiens, UniProt P33261). Description: Inhibition of human CYP2C19. Type of series: ADME.
The target in series [5] is T2, Cytochrome P450 1A2 (Homo sapiens, UniProt P05177).
T2 sequence (P05177 whole entry): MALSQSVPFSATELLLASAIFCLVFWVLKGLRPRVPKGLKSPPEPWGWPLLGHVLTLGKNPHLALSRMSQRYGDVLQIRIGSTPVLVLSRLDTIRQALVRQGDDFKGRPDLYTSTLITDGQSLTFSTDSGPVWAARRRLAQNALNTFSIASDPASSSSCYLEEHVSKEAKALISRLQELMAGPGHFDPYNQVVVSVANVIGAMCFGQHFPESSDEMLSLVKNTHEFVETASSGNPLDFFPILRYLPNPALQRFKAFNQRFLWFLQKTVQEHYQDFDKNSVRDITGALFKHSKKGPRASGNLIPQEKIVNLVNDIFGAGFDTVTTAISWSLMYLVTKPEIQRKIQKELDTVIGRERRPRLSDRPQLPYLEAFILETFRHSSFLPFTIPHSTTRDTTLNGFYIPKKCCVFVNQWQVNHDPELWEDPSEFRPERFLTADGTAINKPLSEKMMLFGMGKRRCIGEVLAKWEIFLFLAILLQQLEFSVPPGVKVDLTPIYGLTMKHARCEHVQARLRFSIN
Kind of series: Inhibition of human CYP1A2. Type of series: ADME.

In series [6] the target is Cytochrome P450 2C9 (Homo sapiens, UniProt P11712). Description: Inhibition of human CYP2C9. Format: ADME.
Series [7] deals with Cytochrome P450 3A4 (Homo sapiens, UniProt P08684). Description: Inhibition of human CYP3A4.
Series [8] concerns Liver microsomes. Description: Intrinsic clearance in rat liver microsome. Type of series: ADME.
The target of series [9] is Cannabinoid receptor 1 (Homo sapiens) (UniProt P21554). Description: Agonist activity at recombinant human CB1 receptor expressed in Saccharomyces cerevisiae cells at 2 uM. Type of series: functional, cell-based.
Sequence of Cannabinoid receptor 1 (Homo sapiens) (P21554 whole entry): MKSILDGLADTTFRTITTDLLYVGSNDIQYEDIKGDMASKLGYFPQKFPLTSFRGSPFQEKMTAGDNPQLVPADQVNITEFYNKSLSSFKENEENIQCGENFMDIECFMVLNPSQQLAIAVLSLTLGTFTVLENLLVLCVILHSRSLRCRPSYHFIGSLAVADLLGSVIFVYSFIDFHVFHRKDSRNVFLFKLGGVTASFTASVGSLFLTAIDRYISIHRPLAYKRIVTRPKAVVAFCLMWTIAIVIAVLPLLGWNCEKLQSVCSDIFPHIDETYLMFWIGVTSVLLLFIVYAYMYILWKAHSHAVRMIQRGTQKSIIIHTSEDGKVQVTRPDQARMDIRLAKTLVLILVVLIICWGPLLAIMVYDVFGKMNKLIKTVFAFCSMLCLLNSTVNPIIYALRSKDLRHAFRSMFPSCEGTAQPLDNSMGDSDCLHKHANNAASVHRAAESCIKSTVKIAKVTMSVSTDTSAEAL

Sequence of Cytochrome P450 2C9 (P11712 whole entry): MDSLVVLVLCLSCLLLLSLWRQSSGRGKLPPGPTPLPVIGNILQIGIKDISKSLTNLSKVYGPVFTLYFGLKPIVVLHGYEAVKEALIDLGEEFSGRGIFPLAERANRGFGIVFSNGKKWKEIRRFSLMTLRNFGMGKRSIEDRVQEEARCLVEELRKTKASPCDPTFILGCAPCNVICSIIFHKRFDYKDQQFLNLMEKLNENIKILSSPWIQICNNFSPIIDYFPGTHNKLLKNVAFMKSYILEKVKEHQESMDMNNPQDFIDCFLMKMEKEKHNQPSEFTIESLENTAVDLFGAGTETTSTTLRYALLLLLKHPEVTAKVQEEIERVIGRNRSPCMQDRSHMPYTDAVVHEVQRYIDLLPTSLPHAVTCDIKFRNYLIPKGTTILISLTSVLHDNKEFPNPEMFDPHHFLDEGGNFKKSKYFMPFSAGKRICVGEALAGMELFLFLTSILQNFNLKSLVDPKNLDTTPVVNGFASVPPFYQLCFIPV
Sequence of Cytochrome P450 2C19 (P33261 whole entry): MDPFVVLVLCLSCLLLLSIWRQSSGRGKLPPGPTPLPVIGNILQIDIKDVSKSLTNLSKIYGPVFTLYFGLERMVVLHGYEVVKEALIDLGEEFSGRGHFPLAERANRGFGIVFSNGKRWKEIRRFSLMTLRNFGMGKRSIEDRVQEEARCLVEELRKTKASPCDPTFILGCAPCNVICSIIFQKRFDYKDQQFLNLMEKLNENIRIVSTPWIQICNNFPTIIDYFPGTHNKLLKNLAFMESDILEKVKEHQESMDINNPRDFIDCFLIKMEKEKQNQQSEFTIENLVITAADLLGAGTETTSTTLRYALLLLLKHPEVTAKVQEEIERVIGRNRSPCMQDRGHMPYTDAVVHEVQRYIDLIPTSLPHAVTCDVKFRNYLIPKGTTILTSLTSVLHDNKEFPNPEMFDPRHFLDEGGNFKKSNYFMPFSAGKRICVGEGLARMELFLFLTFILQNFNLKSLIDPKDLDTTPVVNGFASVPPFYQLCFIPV
T1 sequence (P34972 whole entry): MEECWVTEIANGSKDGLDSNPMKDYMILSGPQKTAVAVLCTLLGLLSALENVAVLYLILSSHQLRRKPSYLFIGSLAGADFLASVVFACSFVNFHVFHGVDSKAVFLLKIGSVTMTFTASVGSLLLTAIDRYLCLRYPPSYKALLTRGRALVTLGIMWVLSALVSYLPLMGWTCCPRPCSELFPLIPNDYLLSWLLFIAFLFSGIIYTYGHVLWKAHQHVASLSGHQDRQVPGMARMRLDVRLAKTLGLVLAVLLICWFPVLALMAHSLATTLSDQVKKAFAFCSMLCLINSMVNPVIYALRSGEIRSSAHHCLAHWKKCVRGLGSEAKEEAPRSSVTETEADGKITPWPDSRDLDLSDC
Sequence of Cytochrome P450 2D6 (P10635 whole entry): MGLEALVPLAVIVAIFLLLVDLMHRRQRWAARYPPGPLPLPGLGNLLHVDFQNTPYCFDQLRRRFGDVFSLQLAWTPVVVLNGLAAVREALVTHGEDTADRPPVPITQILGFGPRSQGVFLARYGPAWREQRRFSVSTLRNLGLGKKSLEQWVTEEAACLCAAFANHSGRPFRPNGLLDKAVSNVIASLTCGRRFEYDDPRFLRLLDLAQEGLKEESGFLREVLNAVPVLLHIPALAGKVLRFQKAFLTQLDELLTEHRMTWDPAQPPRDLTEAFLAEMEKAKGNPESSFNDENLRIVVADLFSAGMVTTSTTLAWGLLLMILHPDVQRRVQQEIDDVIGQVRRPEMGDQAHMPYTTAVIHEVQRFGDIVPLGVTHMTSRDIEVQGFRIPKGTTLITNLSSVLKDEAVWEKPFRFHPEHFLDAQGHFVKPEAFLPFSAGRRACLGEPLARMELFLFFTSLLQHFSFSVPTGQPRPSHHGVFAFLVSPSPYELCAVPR
Sequence of Cytochrome P450 3A4 (P08684 whole entry): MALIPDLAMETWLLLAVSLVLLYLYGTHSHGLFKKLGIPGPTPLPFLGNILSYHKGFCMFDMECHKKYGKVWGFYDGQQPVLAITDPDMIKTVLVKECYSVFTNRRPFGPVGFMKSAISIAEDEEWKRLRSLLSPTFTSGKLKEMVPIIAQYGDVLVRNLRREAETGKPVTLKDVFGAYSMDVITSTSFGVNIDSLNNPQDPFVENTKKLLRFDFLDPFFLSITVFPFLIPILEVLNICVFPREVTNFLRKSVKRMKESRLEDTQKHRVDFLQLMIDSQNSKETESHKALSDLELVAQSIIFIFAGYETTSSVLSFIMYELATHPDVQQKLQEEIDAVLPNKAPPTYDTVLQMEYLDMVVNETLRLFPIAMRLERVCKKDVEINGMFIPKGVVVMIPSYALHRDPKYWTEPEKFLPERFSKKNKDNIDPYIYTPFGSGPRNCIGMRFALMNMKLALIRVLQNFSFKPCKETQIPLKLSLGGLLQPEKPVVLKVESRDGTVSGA

As a reminder, the pEC50 is the EC50 on a negative log10 scale, so that one unit is a factor of ten. Consider `N#Cc1ccc(CNC(=O)c2cnc(Nc3cccc(Cl)c3)nc2C(F)(F)F)cc1`, for which the Efficacy in [1] was 69%. In addition, the pEC50 in series [2] is 6.66.

Turning to `O=C(NCC1CCOCC1)c1cnc(Nc2c(Cl)cccc2Cl)nc1C(F)(F)F`, the Efficacy in series [1] is 86%. Besides, the pEC50 in [2] was 6.20.

What is called pIC50 is −log10 of the IC50, conventionally taken in molar units. Read a low pIC50 as a high IC50. `O=C(NCC1CCOCC1)c1cnc(Nc2cc(Cl)cc(Cl)c2)nc1C(F)(F)F`: in [1], the Efficacy worked out at 85%. The pEC50 in [2] is 7.48. Also, the pIC50 in [3] was 4.57; in series [4], 4.85; in [5], less than 4.00; in series [6] it was 4.89; in [7], 4.42.

As to `O=C(NCC1CCOCC1)c1cnc(Nc2cc(Cl)ccc2Cl)nc1C(F)(F)F`, the Efficacy in [1] was determined as 85%. Besides, the pEC50 in series [2] was 7.00.

For the molecule `O=C(NCC1CCOCC1)c1cnc(Nc2cc(F)cc(F)c2)nc1C(F)(F)F`, the Efficacy in series [1] stood at 91%. The pEC50 in [2] is 6.90. Moreover, the pIC50 is 4.35 in [3]; 4.04 in [4]; 4.62 in [5]; less than 4.00 in series [6]; less than 4.00 in series [7].

Regarding `O=C(NCC1CCOCC1)c1cnc(Nc2ccc(F)cc2Cl)nc1C(F)(F)F`, in [1], the Efficacy was 85%. Moreover, the pEC50 in [2] is 6.40.

As for `O=C(NCC1CCOCC1)c1cnc(Nc2ccc(Cl)cc2F)nc1C(F)(F)F`, the Efficacy in series [1] stood at 80%. The pEC50 in series [2] was 6.70. For the same molecule, the pIC50 in series [3], in [4], in series [5], in [6] and in series [7] was less than 4.00 each time.

In the case of `O=C(NCc1ccc(F)cc1)c1cnc(Nc2cccc(Cl)c2)nc1C(F)(F)F`, the Efficacy in series [1] came to 78%. The pEC50 in series [2] is 7.20. Moreover, the pIC50 in series [3] was 5.82; in [4], 4.92; in series [5], 5.10; in [6], 5.10; in series [7], 5.30.

Consider `O=C(NCc1ccccc1)c1cnc(Nc2cccc(F)c2)nc1C(F)(F)F`, for which the Efficacy in series [1] worked out at 88%. For the same molecule, the pEC50 in series [2] is 6.51.

Regarding `O=C(NCC1CCOCC1)c1cnc(Nc2cccc(Cl)c2)nc1C(F)(F)F`, the Efficacy in series [1] was 89%. In addition, the pEC50 in series [2] is 7.30. In addition, the pIC50 was 4.29 in series [3]; 4.25 in [4]; less than 4.00 in series [5]; 4.74 in series [6]; 4.29 in series [7].

Turning to `O=C(NCc1ccccc1)c1cnc(Nc2ccccc2)nc1C(F)(F)F`, in series [1], the Efficacy was 45%. Further, the pEC50 in [2] was 6.40. In series [8], this molecule showed a CL of less than 0.5 mL/min/g.

For `CC(=O)Nc1ccc(Nc2ncc(C(=O)NCc3ccccc3)c(C(F)(F)F)n2)cc1`, the pEC50 in [2] was less than 4.60.

For the molecule `O=C(NCc1ccccc1)c1cnc(Nc2cccc(Cl)c2)nc1C(F)(F)F`, the Efficacy in [1] came out at 82%. Further, the pEC50 in series [2] is 6.61.

Turning to `CC(=O)Nc1cccc(Nc2ncc(C(=O)NCc3ccccc3)c(C(F)(F)F)n2)c1`, in [2], the pEC50 is less than 4.60.

In the case of `COc1ccc(Nc2ncc(C(=O)NCc3ccccc3)c(C(F)(F)F)n2)cc1`, the Efficacy in series [1] came to 32%. The pEC50 in [2] is 6.70.

Take `O=C(NCC1(O)CCCCC1)c1cnc(Nc2cccc(Cl)c2)nc1C(F)(F)F`: in series [1], the Efficacy is 83%. Further, the pEC50 in series [2] was 6.90. Also, the pIC50 in series [3] was 4.89; in [4], 4.77; in series [5] it was 4.96.

`N#Cc1ccc(Nc2ncc(C(=O)NCc3ccccc3)c(C(F)(F)F)n2)cc1`: the Efficacy in series [1] amounted to 67%. In addition, the pEC50 in series [2] was 6.40.

Turning to `O=C(NCC1CCOCC1)c1cnc(Nc2cc(Cl)ccc2F)nc1C(F)(F)F`, the Efficacy in [1] was 86%. Also, in series [2], the negative-log EC50 (pEC50) was 6.90. The pIC50 in series [3] is less than 4.00; in series [4], less than 4.00; in series [5] it was 4.59; in [6], 4.43; in [7], 4.17.

Take `N#Cc1cccc(Nc2ncc(C(=O)NCc3ccccc3)c(C(F)(F)F)n2)c1`: in [1], the Efficacy worked out at 76%. Besides, in [2], the pEC50 was 6.34.

As to `O=C(NCC1CCOCC1)c1cnc(Nc2cccc(F)c2F)nc1C(F)(F)F`, in [1], the Efficacy came out at 90%. For the same molecule, the pEC50 in [2] was 6.40.

With `COc1ccccc1Nc1ncc(C(=O)NCc2ccccc2)c(C(F)(F)F)n1`, the Efficacy in [1] was found to be 77%. In addition, the pEC50 in series [2] was 6.80.

For the molecule `O=C(NCc1ccc(Cl)cc1)c1cnc(Nc2cccc(Cl)c2)nc1C(F)(F)F`, in series [1], the Efficacy worked out at 65%. For the same molecule, the pEC50 in series [2] was 6.40.

`O=C(NCC1CCCCC1)c1cnc(Nc2cccc(Cl)c2)nc1C(F)(F)F`: the Efficacy in series [1] came to 82%. Further, the pEC50 in [2] is 7.10. Further, the pIC50 in [3] was less than 4.00; in [4], 4.72; in [5], less than 4.00; in series [6], 5.05; in [7], 4.09.

For `O=C(NCc1cccc(Cl)c1)c1cnc(Nc2cccc(Cl)c2)nc1C(F)(F)F`, the Efficacy in [1] came out at 18%. The pEC50 in [2] is 5.80.

For `O=C(NCC1CCC1)c1cnc(Nc2cccc(Cl)c2)nc1C(F)(F)F`, the Efficacy in series [1] was 82%. Also, the pEC50 in series [2] was 7.40. For the same molecule, the pIC50 is 4.66 in series [3]; 5.10 in series [4]; 5.10 in [5]; 5.52 in [6]; 4.12 in series [7].

On to `O=C(NCC1CCOCC1)c1cnc(Nc2ccc(Cl)c(Cl)c2)nc1C(F)(F)F`, for which the Efficacy in series [1] turned out to be 83%; in series [9], 10%. Moreover, the pEC50 in series [2] is 7.31. In addition, the pIC50 in [3] is less than 4.60; in [4], less than 4.60; in series [5], 5.10; in [6], less than 4.60; in series [7], less than 4.60.

As to `COc1ccccc1CNC(=O)c1cnc(Nc2cccc(Cl)c2)nc1C(F)(F)F`, the Efficacy in [1] is 78%. Also, in [2], the negative logarithm of the EC50 (pEC50) was less than 4.60.

Turning to `O=C(NCc1ccncc1)c1cnc(Nc2cccc(Cl)c2)nc1C(F)(F)F`, the Efficacy in [1] amounted to 94%. For the same molecule, in series [2], the pEC50 was 7.22. Moreover, the pIC50 in series [3] was more than 7.00; in series [4], 5.72; in series [5] it was 6.40; in series [6], 6.05; in series [7] it was more than 7.00.

Turning to `O=C(OCc1ccco1)c1cnc(N2CCOCC2)nc1C(F)(F)F`, the Efficacy in series [1] came out at 55%. For the same molecule, the pEC50 in series [2] is 6.20.

For `O=C(NCC1CCOCC1)c1cnc(Nc2cccc(Cl)c2Cl)nc1C(F)(F)F`, in [1], the Efficacy came to 90%. Moreover, in series [2], the pEC50 was 7.10.

Consider `O=C(NCc1ccccc1)c1cnc(Nc2ccc(Cl)cc2)nc1C(F)(F)F`, for which the Efficacy in series [1] worked out at 49%. Further, the pEC50 in series [2] was 6.90.

Take `O=C(NCC1CCOCC1)c1cnc(Nc2cccc(Cl)c2F)nc1C(F)(F)F`: the Efficacy in series [1] is 90%. Moreover, the pEC50 in [2] is 6.90. Besides, the pIC50 is less than 4.00 in series [3]; less than 4.00 in series [4]; 4.00 in [5]; 4.12 in series [6]; less than 4.00 in series [7].

As for `COc1ccc(CNC(=O)c2cnc(Nc3cccc(Cl)c3)nc2C(F)(F)F)cc1`, the Efficacy in series [1] turned out to be 66%. In addition, the pEC50 in series [2] is 6.67.

With `O=C(NCc1ccccc1Cl)c1cnc(Nc2cccc(Cl)c2)nc1C(F)(F)F`, in series [1], the Efficacy came to 21%. Also, in series [2], the pEC50 is 5.00.

Consider `O=C(NCC1CCOCC1)c1cnc(Nc2ccc(F)cc2F)nc1C(F)(F)F`, for which the Efficacy in series [1] came to 81%. In addition, the pEC50 in [2] was 6.20.

In the case of `O=C(NCC1CCCC1)c1cnc(Nc2cccc(Cl)c2)nc1C(F)(F)F`, the Efficacy in [1] stood at 83%. Moreover, in series [2], the pEC50 was 7.10. Besides, the pIC50 in series [3] was less than 4.00; in series [4] it was 4.85; in [5] it was 4.49; in [6], 5.22; in series [7] it was 4.19.

As for `O=C(NCC1CCNCC1)c1cnc(Nc2cccc(Cl)c2)nc1C(F)(F)F`, the Efficacy in series [1] was 46%. Moreover, the pEC50 in series [2] is 5.30.

For the molecule `O=C(NCc1ccccc1)c1cnc(Nc2ccccc2Cl)nc1C(F)(F)F`, the Efficacy in [1] stood at 48%. Also, in series [2], the pEC50 was 6.60.

Regarding `O=C(NCc1ccccc1)c1cnc(Nc2cccc(Br)c2)nc1C(F)(F)F`, the Efficacy in series [1] worked out at 81%. In addition, the pEC50 in series [2] was 6.64.

For the molecule `O=C(NCC1CC1)c1cnc(Nc2cccc(Cl)c2)nc1C(F)(F)F`, the Efficacy in series [1] turned out to be 79%. The pEC50 in series [2] is 7.10.

With `COc1cccc(CNC(=O)c2cnc(Nc3cccc(Cl)c3)nc2C(F)(F)F)c1`, the Efficacy in [1] was determined as 20%. Moreover, in [2], the pEC50 was 4.60.

In the case of `COc1cccc(Nc2ncc(C(=O)NCc3ccccc3)c(C(F)(F)F)n2)c1`, the Efficacy in series [1] came to 76%. The pEC50 in series [2] was 6.33.

With `CC(C)(C)c1ccc(Nc2ncc(C(=O)NCc3ccccc3)c(C(F)(F)F)n2)cc1`, in series [2], the pEC50 is less than 4.60.

Turning to `O=C(NCc1ccco1)c1cnc(Nc2ccccc2)nc1C(F)(F)F`, the Efficacy in series [1] stood at 62%. For the same molecule, in series [2], the pEC50 was 6.20. The molecule further had a CL in series [8] of 4.6 mL/min/g.
